Measured values published in ChEMBL document CHEMBL1201862, “PubChem BioAssay data set” (2004).
Activity calls are given as the source filed them.

Experiments:
[1] = Luminescence Cell-Based Dose Response HTS to Identify Inhibitors of 5'UTR Stem-Loop Driven Prion Protein mRNA Translation in H4 Neuroglioblastoma Cells. [Related pubchem assays: 1827 (Project Summary), 1813 (Primary HTS)]; assay type: functional
[2] = alpha-synuclein stem-loop luciferase translation blockers – H4 neuroglioma cells, luminescence, confirmation (AID 1988); assay type: functional, cell-based
[3] = A549 cell cytotoxicity, dose response, cytotoxicity control, plate reader, cherry-pick, antagonist series (AID 743412); assay type: functional, cell-based
[4] = toxicity toward HepG2 liver cells – cell-based, plate reader, cherry-pick, antagonist series, cytotoxicity control, dose response (AID 743416); assay type: functional
[5] = blockers of bursicon-stimulated LGR2 cAMP reporter – cell-based, HEK293, CRE-luciferase reporter, cherry pick, set 2, dose response (AID 743343); assay type: functional;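 also: transfected cells were stimulated with diluted bursicon conditioned medium after compound addition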
[6] = blockade of melanocortin 4 receptor signaling – cell-based, plate reader, cherry pick, counter-screen for LGR2 antagonist project, dose response (AID 743444); assay type: functional;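 also: transfected HEK 293 cells stimulated with alpha-MSH peptide; potency of inhibitors of the alpha-MSH evoked signal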
[7] = viability of PTEN-deleted HCT116 cells – cell-based, HCT116 PTEN knockout, dose response (AID 1047); assay type: functional;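 also: HCT116 colon tumor cells with PTEN knocked out; cells exposed to compound for 60 hours before readout; potency for loss of cell viability measured by luminescence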
[8] = viability of HCT116 lacking mutant beta-catenin – cell-based, human colon tumor, dose response (AID 1045); assay type: functional;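 also: HCT116 colon tumor cells with beta catenin knocked out; cells exposed to compound for 60 hours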
[9] = blockers of HIV-1 envelope-mediated cell-cell fusion – cherry-pick, dose response (AID 652057); assay type: functional, cell-based
[10] = blockers of HIV-1 ZM109 envelope-driven cell-cell fusion – HeLa effector, CEM target cells, luciferase, cherry-pick, dose response (AID 652058); assay type: functional, cell-based;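 also: luciferase signal from HIV-1 Env mediated cell-cell fusion of effector and target cells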
[11] = off-target signal loss in HeLa-CEM21 co-culture – HeLa F-luc CTL cells, cherry-picked, counter-screen for HIV-1 Env fusion inhibitor project, dose response (AID 652040); assay type: functional, cell-based;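 also: potency for signal decrease marking cytotoxic or nonspecific inhibition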
[12] = HIV-1 AD8 envelope cell-cell fusion blockers – cherry-pick, dose response (AID 652062); assay type: functional, cell-based;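 also: luciferase signal from cell-cell fusion driven by HIV-1 clade B AD8 Env; potency is for inhibitors of fusion seen as a drop in luminescence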
Melanocortin receptor 4 = Melanocortin receptor 4 (Homo sapiens, UniProt P32245); assay type: functional, cell-based;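 also: Cell-based assay with luminescence read-out, confirmatory dose-response testing for agonist activity of biased ligands at MC4R; human U2OS cells with tagged receptor and beta-arrestin; potency of agonists that increase receptor coupling to beta-arrestin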
[13] = Trypanosoma cruzi growth suppression in host cells – NIH3T3 host cells, beta-gal luminescence, confirmation (AID 2044); assay type: functional, cell-based;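 also: intracellular parasites grown in NIH/3T3 mouse fibroblasts as host cells; luminescent beta-galactosidase reporter signal from transgenic T. cruzi replicating inside host cells; inhibitors lower the luminescence signal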
[14] = NIH3T3 cell viability loss – ATP luminescence, mouse fibroblasts, counter-screen, dose response (AID 2010); assay type: functional, cell-based;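 also: cells exposed to compound for about 90 hours before reading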
[15] = biological target: T1, Ubiquitin-conjugating enzyme E2 N (Homo sapiens, UniProt P61088); assay type: functional;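 also: Dose-response confirmation in a TR-FRET assay detecting UBC13-driven polyubiquitin chain formation, inhibition measured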
T1 sequence (P61088 whole entry): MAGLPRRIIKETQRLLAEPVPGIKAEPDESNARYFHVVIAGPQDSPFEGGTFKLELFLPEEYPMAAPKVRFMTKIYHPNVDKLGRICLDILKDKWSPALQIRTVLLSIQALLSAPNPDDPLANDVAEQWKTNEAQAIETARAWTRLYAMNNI

Insulin-degrading enzyme [16] = biological target: T2, Insulin-degrading enzyme (Homo sapiens, UniProt P14735); assay: recombinant IDE activation, cell-free – biochemical, fluorescence polarization, counter-screen for IDE activator project, dose response (AID 588681)
T2 sequence (P14735 whole entry): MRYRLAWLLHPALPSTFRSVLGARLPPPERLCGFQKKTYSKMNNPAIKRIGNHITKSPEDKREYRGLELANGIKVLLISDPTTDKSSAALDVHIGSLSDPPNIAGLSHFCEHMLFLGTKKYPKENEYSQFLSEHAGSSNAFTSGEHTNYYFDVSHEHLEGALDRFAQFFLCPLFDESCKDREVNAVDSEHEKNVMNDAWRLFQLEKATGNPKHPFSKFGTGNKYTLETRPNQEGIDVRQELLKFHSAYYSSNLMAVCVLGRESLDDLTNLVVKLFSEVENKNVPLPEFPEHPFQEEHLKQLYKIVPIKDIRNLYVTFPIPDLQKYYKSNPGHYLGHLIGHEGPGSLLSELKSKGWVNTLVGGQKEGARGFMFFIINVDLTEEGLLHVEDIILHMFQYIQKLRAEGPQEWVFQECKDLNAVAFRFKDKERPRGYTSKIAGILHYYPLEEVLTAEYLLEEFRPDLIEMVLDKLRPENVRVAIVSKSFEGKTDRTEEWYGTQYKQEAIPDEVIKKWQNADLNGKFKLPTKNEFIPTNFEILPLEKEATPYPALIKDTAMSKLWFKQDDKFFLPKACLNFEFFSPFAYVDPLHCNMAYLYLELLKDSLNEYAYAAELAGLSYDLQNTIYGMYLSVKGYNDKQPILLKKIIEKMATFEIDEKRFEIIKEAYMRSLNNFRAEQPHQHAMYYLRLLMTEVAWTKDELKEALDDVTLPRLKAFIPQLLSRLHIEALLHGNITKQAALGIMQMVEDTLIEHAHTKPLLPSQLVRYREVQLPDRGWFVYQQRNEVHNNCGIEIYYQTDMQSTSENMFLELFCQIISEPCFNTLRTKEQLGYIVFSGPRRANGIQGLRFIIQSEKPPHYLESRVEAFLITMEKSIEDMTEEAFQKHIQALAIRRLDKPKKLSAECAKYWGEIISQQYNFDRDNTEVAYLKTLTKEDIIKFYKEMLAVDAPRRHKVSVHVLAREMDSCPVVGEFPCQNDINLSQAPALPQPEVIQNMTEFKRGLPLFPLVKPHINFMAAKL

Insulin-degrading enzyme [17] = biological target: T2, Insulin-degrading enzyme; assay: cellular IDE activation of Abeta substrate cleavage – fluorescence polarization, HEK cells, dose response (AID 588439); assay type: functional, cell-based
HEK293 [18] = assay: membrane integrity loss in HEK cells – cell-based, fluorescence, cytotoxicity control for IDE activator project, dose response (AID 588440); assay type: functional; conditions: Homo sapiens;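 also: cytotoxicity by LDH release measuring loss of membrane integrity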
HEK293 [19] = assay: optical interference in Abeta FP readout, dose response, artefact control for IDE activator project, biochemical, fluorescence polarization (AID 588442); assay type: functional, cell-based; conditions: Homo sapiens
Estrogen receptor beta = Estrogen receptor beta (Homo sapiens, UniProt Q92731);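 also: recombinant ER-beta bound to coactivator SRC1 peptide in presence of estradiol agonist; inhibitors block coactivator peptide binding and lower the FRET signal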
Cytochrome P450 1A2 = biological target: T3, Cytochrome P450 1A2 (Homo sapiens, UniProt P05177);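 also: PubChem cytochrome P450 panel assay, CYP1A2 panel member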
T3 sequence (P05177 whole entry): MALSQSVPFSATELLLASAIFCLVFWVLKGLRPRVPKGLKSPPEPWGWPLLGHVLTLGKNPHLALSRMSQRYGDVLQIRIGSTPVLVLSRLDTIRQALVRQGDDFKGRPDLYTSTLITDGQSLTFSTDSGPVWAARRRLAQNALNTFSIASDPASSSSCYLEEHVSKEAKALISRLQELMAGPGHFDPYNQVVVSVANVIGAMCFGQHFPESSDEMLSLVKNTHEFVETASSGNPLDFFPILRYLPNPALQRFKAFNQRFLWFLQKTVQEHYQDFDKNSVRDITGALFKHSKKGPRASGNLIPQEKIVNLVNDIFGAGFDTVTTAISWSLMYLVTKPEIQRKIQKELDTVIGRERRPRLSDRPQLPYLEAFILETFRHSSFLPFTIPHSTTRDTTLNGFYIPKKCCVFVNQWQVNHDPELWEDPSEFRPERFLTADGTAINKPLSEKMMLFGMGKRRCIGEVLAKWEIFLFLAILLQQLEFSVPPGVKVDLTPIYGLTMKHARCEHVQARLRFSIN

[20] = biological target: T4, Hepatocyte nuclear factor 4-alpha (Homo sapiens, UniProt P41235); assay type: functional, cell-based;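 also: biochemical luminescence-based dose-response counterscreen measuring inhibition of HNF4 dimerization, run alongside a screen for blockers of ABHD5–perilipin-5 interaction; split luciferase complementation of HNF4 fusion proteins in cell lysate measuring dimerization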
T4 sequence (P41235 whole entry): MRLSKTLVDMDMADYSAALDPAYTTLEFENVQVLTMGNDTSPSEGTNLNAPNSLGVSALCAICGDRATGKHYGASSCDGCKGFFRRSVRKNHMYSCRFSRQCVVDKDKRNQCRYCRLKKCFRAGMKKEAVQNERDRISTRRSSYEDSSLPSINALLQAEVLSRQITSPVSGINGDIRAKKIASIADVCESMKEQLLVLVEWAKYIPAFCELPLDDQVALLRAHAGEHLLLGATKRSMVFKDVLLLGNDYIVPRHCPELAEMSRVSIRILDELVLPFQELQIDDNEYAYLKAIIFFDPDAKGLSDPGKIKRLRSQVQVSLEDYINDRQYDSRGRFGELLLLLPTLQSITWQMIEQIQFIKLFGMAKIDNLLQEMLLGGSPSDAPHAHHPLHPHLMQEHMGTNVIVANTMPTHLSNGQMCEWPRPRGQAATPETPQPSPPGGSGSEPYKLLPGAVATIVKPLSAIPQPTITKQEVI

[21] = viability loss in HeLa cells – cytotoxicity control for MgcRacGAP inhibitor project, dose response (AID 624300); assay type: functional
[22] = biological target: T5, Rac GTPase-activating protein 1 (Homo sapiens, UniProt Q9H0H5); assay: blockers of MgcRacGAP-driven Rac1 GTP hydrolysis – biochemical, ADP Hunter fluorescence, primary and confirmatory, confirmation (AID 624330); assay type: functional
T5 sequence (Q9H0H5 whole entry): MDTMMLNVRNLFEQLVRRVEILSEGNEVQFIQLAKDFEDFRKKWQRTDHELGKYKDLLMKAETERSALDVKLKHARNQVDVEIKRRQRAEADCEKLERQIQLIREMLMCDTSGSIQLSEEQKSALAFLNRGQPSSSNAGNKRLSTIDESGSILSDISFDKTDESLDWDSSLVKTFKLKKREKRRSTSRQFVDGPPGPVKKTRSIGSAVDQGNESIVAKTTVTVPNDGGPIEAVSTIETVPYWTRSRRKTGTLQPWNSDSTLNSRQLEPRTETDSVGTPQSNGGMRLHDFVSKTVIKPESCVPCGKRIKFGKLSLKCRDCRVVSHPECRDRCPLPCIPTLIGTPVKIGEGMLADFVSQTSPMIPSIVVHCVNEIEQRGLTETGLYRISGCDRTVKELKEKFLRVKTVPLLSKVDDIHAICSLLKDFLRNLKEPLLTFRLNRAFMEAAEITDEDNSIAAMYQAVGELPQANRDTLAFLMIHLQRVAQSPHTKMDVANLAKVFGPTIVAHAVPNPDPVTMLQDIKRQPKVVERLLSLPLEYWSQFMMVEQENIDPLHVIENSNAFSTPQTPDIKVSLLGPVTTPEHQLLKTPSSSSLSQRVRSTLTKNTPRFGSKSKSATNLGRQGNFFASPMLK

Chain of Estrogen receptor beta (Q92731 whole entry): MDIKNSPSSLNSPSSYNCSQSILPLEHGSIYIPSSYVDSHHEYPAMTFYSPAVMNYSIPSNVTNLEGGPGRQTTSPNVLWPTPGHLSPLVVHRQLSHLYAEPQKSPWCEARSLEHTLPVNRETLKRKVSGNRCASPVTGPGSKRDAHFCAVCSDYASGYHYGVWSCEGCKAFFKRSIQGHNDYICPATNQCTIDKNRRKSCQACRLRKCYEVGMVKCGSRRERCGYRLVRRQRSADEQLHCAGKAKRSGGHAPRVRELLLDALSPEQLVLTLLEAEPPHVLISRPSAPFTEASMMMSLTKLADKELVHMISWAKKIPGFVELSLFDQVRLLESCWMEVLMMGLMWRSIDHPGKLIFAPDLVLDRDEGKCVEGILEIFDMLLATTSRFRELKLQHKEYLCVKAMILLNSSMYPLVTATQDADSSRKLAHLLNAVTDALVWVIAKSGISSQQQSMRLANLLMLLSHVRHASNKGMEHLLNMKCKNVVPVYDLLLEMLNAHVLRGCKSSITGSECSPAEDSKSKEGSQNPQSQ
Chain of Melanocortin receptor 4 (P32245 whole entry): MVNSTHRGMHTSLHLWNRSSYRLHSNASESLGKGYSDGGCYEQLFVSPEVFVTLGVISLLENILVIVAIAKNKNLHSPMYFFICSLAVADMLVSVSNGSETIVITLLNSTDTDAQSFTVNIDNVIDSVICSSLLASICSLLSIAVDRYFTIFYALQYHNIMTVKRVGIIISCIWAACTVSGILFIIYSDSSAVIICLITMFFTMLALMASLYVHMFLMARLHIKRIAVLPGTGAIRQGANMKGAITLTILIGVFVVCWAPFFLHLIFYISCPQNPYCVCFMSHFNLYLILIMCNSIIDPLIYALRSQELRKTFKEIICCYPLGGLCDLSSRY

Cc1ccc(NC(=O)c2ccc3c(c2)OCCO3)cc1C
EC50 [1]: 5.06 µM (active) | EC50 [2]: 3.68 µM (active) | AC50 [3]: > 52 µM (inactive) | AC50 [4]: > 52 µM (inactive) | AC50 [5]: 5.65 µM (active) | AC50 [6]: 7.61 µM (active)

Cc1ccc2cc(C#N)c(SCc3nnc(-c4ccccc4[N+](=O)[O-])o3)nc2c1
EC50 [7]: 3.33 µM (active) | EC50 [8]: 4.3 µM (active)

Sc1ncc(-c2ccccc2)n1-c1cccc(Cl)c1
AC50 [9]: 11.7 µM (active) | AC50 [10]: 16.1 µM (active) | AC50 [11]: 17.1 µM (active) | AC50 [12]: 21.3 µM (active)

O=C(CCN1C(=O)/C(=C/C=C/c2ccccc2)SC1=S)Nc1cccnc1
EC50 (Melanocortin receptor 4): > 89.2 µM (inactive)

CCN1CCN(CCNC(=O)c2ccc(/C=C3/Sc4ccccc4N(Cc4cccc(C)c4)C3=O)cc2)CC1
EC50 [13]: 1.29 µM (active) | EC50 [14]: 8.45 µM (active) | IC50 [15]: > 20 µM (inactive) | EC50 (Insulin-degrading enzyme [16]): > 54.7 µM (inactive) | EC50 (Insulin-degrading enzyme [17]): 23.2 µM (inactive) | IC50 (HEK293 [18]): 20.2 µM (inactive) | EC50 (HEK293 [19]): > 54.7 µM (inactive)

Cc1ccccc1NC(=O)Cn1cnc2c1c(=O)n(C)c(=O)n2C
IC50 (Estrogen receptor beta): > 50 µM (not active) | AC50 (Cytochrome P450 1A2): 15.8 µM (inconclusive)

CC(C)c1ccc(N2C=Nc3ccc(C(C)C)cc3C2)cc1
IC50 [20]: 22.5 µM (inactive)

COc1cc(-c2nc3ccc(C)cn3c2Nc2ccc3c(c2)OCCO3)ccc1O
CC50 [21]: 100 µM (active) | IC50 [22]: 34.2 µM (active)
